Test system: vasopressin receptor
Format: cell-based
Conditions: HEK293T cells (FIG. 8), compared to vasopressin

## CC[C@H](C)[C@@H]1NC(=O)[C@H](Cc2ccc(O)cc2)NC(=O)[C@@H](N)CSSC[C@@H](C(=O)N2CCC[C@H]2C(=O)N[C@@H](CC(C)C)C(=O)NCC(N)=O)NC(=O)[C@H](CC(N)=O)NC(=O)[C@H](CCC(N)=O)NC1=O [oxytocin]
  beta arrestin signaling (green fluorescence), speed: significantly slower

From patent publication US12613237B2, “Biosensors for detecting arrestin signaling” (MONTANA MOLECULAR, LLC, priority 2018, dated 2026)
